Assay results as given in patent US12054498B2, “Heteroaromatic macrocyclic ether chemotherapeutic agents” (Nuvalent, Inc., priority 2020, dated 2024).
pIC50, pKi: −log10 of the molar value.

What was measured:
ALK-wt = target: T1, ALK-wt (Homo sapiens, UniProt Q9UM73); experiment: Biochemical kinase assay, ALK-wt kinase domain; details: apparent inhibitory constant, Morrison equation; ATP 2 mM in substrate solution; read-out: ALK-wt Ki^app
T1 construct: purchased Carna 08-518
Protocol: (§1) First, 250 nL of compound dissolved in DMSO (100-fold of the desired concentration) was dispensed into a 384-well plate. A 12.5 μL substrate solution containing ATP (2 mM) and fluorogenic phosphorylation substrate AQT0101 (26 μM for ALK and ROS1, AssayQuant) or AQT0104 (26 μM for TRKA, AssayQuant) in buffer (50 mM HEPES pH 7.5, 0.01% Brij-35, 0.5 mM EGTA, 10 mM MgCl2) was added and mixed thoroughly. Then, a 12.5 μL kinase solution containing ALK-wt (1.5 nM, Carna, 08-518), ALK ALK L1196M/G1202R (3 nM, SignalChem, A19-12NG), ROS1-wt (0.6 nM, Carna, 08-163), ROS1-G2032R (0.5 nM, SignalChem, R14-12BG), or TRKA-wt (1 nM, BPS Bio, 40280) kinase domains in buffer (50 nM HEPES pH 7.5, 0.01% Brij-35, 2% glycerol, 0.4 mg/mL BSA, 0.5 mM EGTA, and 10 mM MgCl2) was added and mixed thoroughly. The plate was sealed and read by SpectraMax Paradigm at λ=485 nm every 2 minutes for 120 minutes at 30° C. Initial rates of reaction (v) were calculated from the change in fluorescence intensity over time during the initial, linear portion of the reaction. Finally, apparent inhibitory constants (Ki^app) were determined from regression of v and I (inhibitor concentration) to Morrison Equation (E=enzyme concentration): […]

ALK L1196M/G1202R = target: T2, ALK L1196M/G1202R (Homo sapiens, UniProt Q9UM73, G1202R/L1196M); experiment: Biochemical kinase assay, ALK L1196M/G1202R kinase domain; details: apparent inhibitory constant, Morrison equation; ATP 2 mM in substrate solution; read-out: ALK-L1196M-G1202R Ki^app
T2 construct: purchased SignalChem A19-12NG
Protocol: as §1

ROS1-wt = target: T3, ROS1-wt (Homo sapiens, UniProt P08922); experiment: Biochemical kinase assay, ROS1-wt kinase domain; details: apparent inhibitory constant, Morrison equation; ATP 2 mM in substrate solution; read-out: ROS1-wt Ki^app
T3 construct: purchased Carna 08-163
Protocol: as §1, with “Then, a 12.5 μL kinase solution containing ALK-wt (1.5 nM, Carna, 08-518), ALK ALK L1196M/G1202R (3 nM, SignalChem, A19-12NG), ROS1-wt (0.6 nM, Carna, 08-163), ROS1-G2032R (0.5 nM, SignalChem, R14-12BG), or TRKA-wt (1 nM, BPS Bio, 40280) kinase domains in buffer (50 nM HEPES pH 7.5, 0.01% Brij-35, 2% glycerol, 0.4 mg/mL BSA, 0.5 mM EGTA, and 10 mM MgCl2) was added and mixed thoroughly.” left out

ROS1-G2032R = target: T4, ROS1-G2032R (Homo sapiens, UniProt P08922, G2032R); experiment: Biochemical kinase assay, ROS1-G2032R kinase domain; details: apparent inhibitory constant, Morrison equation; ATP 2 mM in substrate solution; read-out: ROS1-G2032R Ki^app
T4 construct: purchased SignalChem R14-12BG
Protocol: as §1, with “Then, a 12.5 μL kinase solution containing ALK-wt (1.5 nM, Carna, 08-518), ALK ALK L1196M/G1202R (3 nM, SignalChem, A19-12NG), ROS1-wt (0.6 nM, Carna, 08-163), ROS1-G2032R (0.5 nM, SignalChem, R14-12BG), or TRKA-wt (1 nM, BPS Bio, 40280) kinase domains in buffer (50 nM HEPES pH 7.5, 0.01% Brij-35, 2% glycerol, 0.4 mg/mL BSA, 0.5 mM EGTA, and 10 mM MgCl2) was added and mixed thoroughly.” left out

TRKA-wt = target: T5, TRKA-wt (Homo sapiens, UniProt P04629); experiment: Biochemical kinase assay, TRKA-wt kinase domain; details: apparent inhibitory constant, Morrison equation; ATP 2 mM in substrate solution; read-out: TRKA-wt Ki^app
T5 construct: or TRKA-wt (1 nM, BPS Bio, 40280) kinase domains in buffer; purchased BPS Bio 40280
Protocol: as §1

[1] = target: T6, Ba/F3 cells CD74-ROS1 wild-type (wt) (Homo sapiens, UniProt P08922); experiment: Ba/F3 cell proliferation assay, CD74-ROS1 wild-type; format: cell-based; details: 72 hours, CellTiter-Glo
T6 construct: fusion of the C-terminus of ROS1 with the N-terminus of various partner proteins; host or cells: Ba/F3 (RIKEN), retroviral pMSCV-puro; the other entry of the earlier key: CD74 (P04233, HLA class II histocompatibility antigen gamma chain)
Procedure, shortened: (§2)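 First, retrovirally infected Ba/F3 cells were made IL-3-independent and selected with puromycin (0.8 μg/mL). Next, cells were plated and rested one day. Then compounds in 3-fold dilutions were added for 72 hours before CellTiter-Glo readout.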

[2] = target: T7, Ba/F3 cells CD74-ROS1 G2032R (Homo sapiens, UniProt P08922, G2032R); experiment: Ba/F3 cell proliferation assay, CD74-ROS1 G2032R; format: cell-based; details: 72 hours, CellTiter-Glo
T7 construct: fusion of the C-terminus of ROS1 with the N-terminus of various partner proteins; host or cells: Ba/F3 (RIKEN), retroviral pMSCV-puro; the other entry of the earlier key: CD74 (P04233, HLA class II histocompatibility antigen gamma chain)
Procedure, shortened: as §2

[3] = target: T8, Ba/F3 cells EML4-ALK wt (variant 1) (Homo sapiens, UniProt Q9UM73); experiment: Ba/F3 cell proliferation assay, EML4-ALK wt (variant 1); format: cell-based; details: 72 hours, CellTiter-Glo
T8 construct: echinoderm microtubule-associated protein-like 4 (EML4) gene and the ALK tyrosine kinase domain; host or cells: Ba/F3 (RIKEN), retroviral pMSCV-puro; the other entry of the earlier key: EML4 (Q9HC35, Echinoderm microtubule-associated protein-like 4)
Procedure, shortened: (§3)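 First, Ba/F3 cells were made IL-3-independent via retroviral fusion expression and puromycin selection, then cloned by single-cell dilution. Next, 1,000 cells/well were plated for a day, exposed to 3-fold diluted compounds for 72 hours, and lysed with CellTiter-Glo. Finally, IC50 was fitted by four-parameter logistic regression.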

[4] = target: T9, Ba/F3 cells EML4-ALK L1196M/G1202R (variant 1) (Homo sapiens, UniProt Q9UM73, G1202R/L1196M); experiment: Ba/F3 cell proliferation assay, EML4-ALK L1196M/G1202R (variant 1); format: cell-based; details: 72 hours, CellTiter-Glo
T9 construct: echinoderm microtubule-associated protein-like 4 (EML4) gene and the ALK tyrosine kinase domain; host or cells: Ba/F3 (RIKEN), retroviral pMSCV-puro; the other entry of the earlier key: EML4 (Q9HC35, Echinoderm microtubule-associated protein-like 4)
Procedure, shortened: as §3

Ba/F3 cells TPM3-TRKA = target: T10, Ba/F3 cells TPM3-TRKA (Homo sapiens, UniProt P04629); experiment: Ba/F3 cell proliferation assay, TPM3-TRKA; format: cell-based; details: 72 hours, CellTiter-Glo, read-out: TPM3-NTRK1-wt IC50
T10 construct: host or cells: Ba/F3 (RIKEN), retroviral pMSCV-puro; the other entry of the earlier key: TPM3 (P06753, Tropomyosin alpha-3 chain)
Procedure, shortened: as §3

[5] = system: TPM3-NTRK1-wt IC50 / primary target IC50 (e.g. CD74-ROS1-wt); experiment: TRKA selectivity in Ba/F3 cells (TRKA potency divided by primary target potency); format: cell-based; details: for TPM3-NTRK1-wt/CD74-ROS1-G2032R selectivity ratio: TRKA potency / CD74-ROS1-G2032R potency; for TPM3-NTRK1-wt/CD74-ROS1-wt selectivity ratio: TRKA potency / CD74-ROS1-wt potency; for TPM3-NTRK1-wt/EML4-ALK-L1196M-G1202R selectivity ratio: TRKA potency / EML4-ALK-L1196M-G1202R potency; for TPM3-NTRK1-wt/EML4-ALK-wt selectivity ratio: TRKA potency / EML4-ALK-wt potency
Protocol: TRKA selectivity was calculated by dividing a compound's TRKA potency by its primary target potency (e.g. TPM3-NTRK1-wt IC50/CD74-ROS1-wt IC50). Compound selectivity can be interpreted by binning ratio values: bin A for very high selectivity, ratio >30-fold; bin B for high selectivity, ratio >10-fold; bin C for moderate selectivity, ratio ≥1; and bin D for low selectivity, ratio <1. […] (nd=not determined).

T8 sequence (Q9UM73 with tags, fused parts or gaps): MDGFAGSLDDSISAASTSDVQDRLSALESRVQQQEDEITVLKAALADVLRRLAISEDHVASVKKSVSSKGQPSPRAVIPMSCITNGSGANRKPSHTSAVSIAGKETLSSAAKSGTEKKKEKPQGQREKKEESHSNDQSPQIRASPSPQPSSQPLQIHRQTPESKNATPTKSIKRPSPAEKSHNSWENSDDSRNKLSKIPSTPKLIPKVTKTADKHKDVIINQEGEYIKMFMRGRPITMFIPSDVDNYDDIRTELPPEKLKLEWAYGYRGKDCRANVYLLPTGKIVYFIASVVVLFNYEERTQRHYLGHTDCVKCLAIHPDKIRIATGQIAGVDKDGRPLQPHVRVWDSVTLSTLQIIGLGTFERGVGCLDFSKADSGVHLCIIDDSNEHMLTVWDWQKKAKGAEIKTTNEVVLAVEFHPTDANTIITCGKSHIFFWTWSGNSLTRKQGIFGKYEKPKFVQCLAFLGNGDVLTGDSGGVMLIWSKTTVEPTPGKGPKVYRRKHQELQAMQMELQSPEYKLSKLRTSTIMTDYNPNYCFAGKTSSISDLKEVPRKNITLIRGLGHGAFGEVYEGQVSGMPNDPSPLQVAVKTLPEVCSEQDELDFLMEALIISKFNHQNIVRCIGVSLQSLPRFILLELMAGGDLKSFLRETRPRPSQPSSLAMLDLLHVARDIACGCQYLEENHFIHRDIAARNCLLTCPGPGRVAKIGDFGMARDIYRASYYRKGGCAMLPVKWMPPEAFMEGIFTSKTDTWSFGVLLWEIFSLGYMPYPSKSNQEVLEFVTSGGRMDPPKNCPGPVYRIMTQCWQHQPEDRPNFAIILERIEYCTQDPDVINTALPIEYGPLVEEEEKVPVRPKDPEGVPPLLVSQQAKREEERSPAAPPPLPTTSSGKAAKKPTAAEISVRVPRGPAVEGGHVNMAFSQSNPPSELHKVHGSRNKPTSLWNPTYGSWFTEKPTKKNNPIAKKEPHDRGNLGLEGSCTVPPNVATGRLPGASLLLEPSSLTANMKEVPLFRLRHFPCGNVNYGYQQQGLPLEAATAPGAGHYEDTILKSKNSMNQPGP
T9 sequence (Q9UM73 with tags, fused parts or gaps L1196M/G1202R): as the sequence (Q9UM73 with tags, fused parts or gaps) above, with L635M, G641R counted along it
T4 sequence (P08922 1945-2222 G2032R limits assumed): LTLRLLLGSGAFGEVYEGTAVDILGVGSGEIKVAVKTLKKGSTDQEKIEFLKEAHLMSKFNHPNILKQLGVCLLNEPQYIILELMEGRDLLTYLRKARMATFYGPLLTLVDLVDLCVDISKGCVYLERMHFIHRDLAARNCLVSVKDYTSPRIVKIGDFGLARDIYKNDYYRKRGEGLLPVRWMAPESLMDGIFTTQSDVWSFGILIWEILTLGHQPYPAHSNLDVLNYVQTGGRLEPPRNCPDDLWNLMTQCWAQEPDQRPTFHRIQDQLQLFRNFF
T7 sequence (P08922 1883-2347 G2032R limits assumed): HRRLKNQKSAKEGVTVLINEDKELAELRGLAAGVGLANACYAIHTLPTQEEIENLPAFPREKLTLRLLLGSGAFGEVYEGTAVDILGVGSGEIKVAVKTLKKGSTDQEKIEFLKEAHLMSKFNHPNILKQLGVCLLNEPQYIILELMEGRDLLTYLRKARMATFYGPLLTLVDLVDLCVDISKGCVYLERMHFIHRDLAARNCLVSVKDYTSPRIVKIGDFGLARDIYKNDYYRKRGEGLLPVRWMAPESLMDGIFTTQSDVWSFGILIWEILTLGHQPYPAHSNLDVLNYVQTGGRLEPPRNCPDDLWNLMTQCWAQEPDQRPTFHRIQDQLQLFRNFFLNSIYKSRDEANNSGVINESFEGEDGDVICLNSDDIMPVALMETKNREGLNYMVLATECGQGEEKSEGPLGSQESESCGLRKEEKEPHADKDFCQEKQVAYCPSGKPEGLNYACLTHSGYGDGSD
T3 sequence (P08922 1945-2222 limits assumed): as the sequence (P08922 1945-2222 G2032R limits assumed) above, with R88G counted along it
T10 sequence (P04629 510-796 limits assumed): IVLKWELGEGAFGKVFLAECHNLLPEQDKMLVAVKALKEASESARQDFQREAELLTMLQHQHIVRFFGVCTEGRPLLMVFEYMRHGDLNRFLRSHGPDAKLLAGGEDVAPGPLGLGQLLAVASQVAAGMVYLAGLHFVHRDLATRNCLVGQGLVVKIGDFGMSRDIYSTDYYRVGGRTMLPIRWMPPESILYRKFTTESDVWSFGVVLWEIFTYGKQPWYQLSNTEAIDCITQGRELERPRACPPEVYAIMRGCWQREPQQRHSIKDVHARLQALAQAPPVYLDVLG
T5 sequence (P04629 510-781 limits assumed): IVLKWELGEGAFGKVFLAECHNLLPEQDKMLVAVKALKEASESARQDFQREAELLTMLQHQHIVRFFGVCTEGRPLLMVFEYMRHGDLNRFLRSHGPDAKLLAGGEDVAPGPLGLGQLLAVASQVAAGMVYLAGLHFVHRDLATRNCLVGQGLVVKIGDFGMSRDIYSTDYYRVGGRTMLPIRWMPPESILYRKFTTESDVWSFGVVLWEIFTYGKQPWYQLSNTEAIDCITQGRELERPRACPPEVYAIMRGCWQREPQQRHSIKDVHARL
T6 sequence (P08922 1883-2347 limits assumed): as the sequence (P08922 1883-2347 G2032R limits assumed) above, with R150G counted along it
T2 sequence (Q9UM73 1116-1392 L1196M/G1202R limits assumed): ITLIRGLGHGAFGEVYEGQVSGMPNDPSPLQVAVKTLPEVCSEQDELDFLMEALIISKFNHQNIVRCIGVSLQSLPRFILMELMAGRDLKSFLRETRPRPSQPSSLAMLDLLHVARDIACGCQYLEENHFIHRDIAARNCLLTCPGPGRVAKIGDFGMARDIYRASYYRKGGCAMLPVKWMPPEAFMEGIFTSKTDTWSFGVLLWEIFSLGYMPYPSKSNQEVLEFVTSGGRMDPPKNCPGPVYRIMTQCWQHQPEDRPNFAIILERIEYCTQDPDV
T1 sequence (Q9UM73 1116-1392 limits assumed): as the sequence (Q9UM73 1116-1392 L1196M/G1202R limits assumed) above, with M81L, R87G counted along it

In the case of `CCn1nc(C)c2c1-c1cnc(N)c(c1)O[C@H](C)c1cc(F)ccc1-c1nn(C)nc1C2` [Example 29, (19R)-3-ethyl-16-fluoro-5,10,19-trimethyl-20-oxa-3,4,9,10,11,23-hexaazapentacyclo[19.3.1.0^2,^6.0^8,^12.0^13,^18]pentacosa-1(24),2(6),4,8,11,13,15,17,21(25),22-decaen-22-amine], the pKi (ALK-wt) was greater than 7.30, the pKi (ALK L1196M/G1202R) was greater than 7.30 and the pKi (ROS1-wt) was greater than 7.30. It also gave a pKi (ROS1-G2032R) greater than 7.30, a pKi (TRKA-wt) of 6.30 to 7.30 and a pIC50 [1] of 7.30 to 10.00. It also gave a pIC50 [2] of 7.30 to 10.00, a pIC50 [3] of 7.30 to 10.00 and a pIC50 [4] of 7.30 to 10.00. For the same compound, the pIC50 (Ba/F3 cells TPM3-TRKA) was 6.30 to 7.30, the TPM3-NTRK1-wt/CD74-ROS1-G2032R selectivity ratio [5] was “A (bin A for very high selectivity, ratio >30-fold)” and the TPM3-NTRK1-wt/CD74-ROS1-wt selectivity ratio [5] was “A (bin A for very high selectivity, ratio >30-fold)”. The TPM3-NTRK1-wt/EML4-ALK-L1196M-G1202R selectivity ratio [5] was “C (bin C for moderate selectivity, ratio ≥1)” and the TPM3-NTRK1-wt/EML4-ALK-wt selectivity ratio [5] was “A (bin A for very high selectivity, ratio >30-fold)”.

`CCn1ncc2c1-c1cnc(N)c(c1)O[C@H](C)c1cc(F)ccc1-c1ncnn1C2` [Example 35, (19R)-3-ethyl-16-fluoro-19-methyl-20-oxa-3,4,8,9,11,23-hexaazapentacyclo[19.3.1.0^2,^6.0^8,^12.0^13,^18]pentacosa-1(24),2(6),4,9,11,13,15,17,21(2 5),22-decaen-22-amine] was tested, and the pKi (ALK-wt) was greater than 7.30, the pKi (ALK L1196M/G1202R) was greater than 7.30 and the pKi (ROS1-wt) was greater than 7.30. It also gave a pKi (ROS1-G2032R) greater than 7.30, a pKi (TRKA-wt) of 6.30 to 7.30 and a pIC50 [1] of 7.30 to 10.00. It also gave a pIC50 [2] of 7.30 to 10.00, a pIC50 [3] of 7.30 to 10.00 and a pIC50 [4] of 6.30 to 7.30. For the same compound, the pIC50 (Ba/F3 cells TPM3-TRKA) was less than 6.30, the TPM3-NTRK1-wt/CD74-ROS1-G2032R selectivity ratio [5] was “A (bin A for very high selectivity, ratio >30-fold)” and the TPM3-NTRK1-wt/CD74-ROS1-wt selectivity ratio [5] was “A (bin A for very high selectivity, ratio >30-fold)”. The TPM3-NTRK1-wt/EML4-ALK-L1196M-G1202R selectivity ratio [5] was “C (bin C for moderate selectivity, ratio ≥1)” and the TPM3-NTRK1-wt/EML4-ALK-wt selectivity ratio [5] was “A (bin A for very high selectivity, ratio >30-fold)”.

Compound `CCc1nn(C)c2c1-c1cnc(N)c(c1)O[C@H](C)c1cc(F)ccc1-c1nn(C)nc1C2` [Example 98, (19R)-3-ethyl-16-fluoro-5,10,19-trimethyl-20-oxa-4,5,9,10,11,23-hexaazapentacyclo[19.3.1.0^2,^6.0^8,^12.0^13,^18]pentacosa-1(24),2(6),3,8,11,13,15,17,21(25),22-decaen-22-amine] has a pKi (ALK-wt) greater than 7.30, a pKi (ALK L1196M/G1202R) greater than 7.30 and a pKi (ROS1-wt) greater than 7.30. It also gave a pKi (ROS1-G2032R) greater than 7.30, a pKi (TRKA-wt) of 6.30 to 7.30 and a pIC50 [1] of 7.30 to 10.00. For the same compound, the pIC50 [2] was 7.30 to 10.00, the pIC50 [3] was 7.30 to 10.00 and the pIC50 [4] was 7.30 to 10.00. For the same compound, the pIC50 (Ba/F3 cells TPM3-TRKA) was 6.30 to 7.30, the TPM3-NTRK1-wt/CD74-ROS1-G2032R selectivity ratio [5] was “A (bin A for very high selectivity, ratio >30-fold)” and the TPM3-NTRK1-wt/CD74-ROS1-wt selectivity ratio [5] was “A (bin A for very high selectivity, ratio >30-fold)”. The TPM3-NTRK1-wt/EML4-ALK-L1196M-G1202R selectivity ratio [5] was “C (bin C for moderate selectivity, ratio ≥1)” and the TPM3-NTRK1-wt/EML4-ALK-wt selectivity ratio [5] was “A (bin A for very high selectivity, ratio >30-fold)”.
